What was measured:
uterine peroxidase = assay: Uterine peroxidase activity (gene product of uterine) in cycloheximide-injured rats; assay type: in vivo, Sprague-Dawley rats; conditions: treatment group: cycloheximide + LIG, intraperitoneal injection, female rats; P < 0.001 vs control
Experimental: It is known that peroxidase induction is a useful market for estrogen-effected growth responses in uterine. The uterine peroxidase is a useful gene product for assessing effect of hormones on uterine. […] Female Sprague-Dawley rats at 20 days of age, allowed free access to food and water. Castrate rats were the same strain. Rats of normal group were administered in saline solution by intraperitoneal injection. Rats of control group were injected cycloheximide. Rats of treatment group injected cycloherimide+LIG. At the indicated times the rats were sacrificed by decapitation. The entire uterus from oviduct to cervix was removed, quickly dissected free of fat and connective tissue, blotted on hard filter paper, and weighed. Each uterus was minced with a scissors into a 12-ml polycarbonate tube and homogenized, 10 sec with ice cooling in 10 mM Tris.HCl, pH 7.2, buffer (25 mg of tissue per ml unless otherwise stated), with homogenizer. The homogenates were centrifuged for 45 min at 39,000×g at 2°. The hypotonic supernatant fraction contains no peroxidase activity. […] The reaction was started by the addition of enzyme (extract), and initial rates of guaiacol oxidation were determined from the increase in absorbance at 470 nm for the first minutes.

uterine tissues = assay: DNA synthesis of uterine (3H-TdR) in cycloheximide-injured rats; assay type: in vivo, Sprague-Dawley rats; conditions: treatment group: cycloheximide + LIG, female rats
Experimental: Female Sprague-Dawley rats at 20 days of age, allowed free access to food and water and, as immature rats, used by age 23 days. Castrate rats were the same strain. Rats of normal group were administered in saline solution by intraperitoneal injection. Rats of control group were injected cycloheximide. Rats of treatment group injected cycloherimide+LIG. At the indicated times the rats were sacrificed by decapitation. The entire uterus from oviduct to cervix was removed, quickly dissected free of fat and connective tissue, blotted on hard filter paper, and weighed. Each uterus was minced with a scissors into a 12-ml polycarbonate tube and homogenized, 10 sec with ice cooling in 10 mM Tris.HCl, pH 7.2, buffer (10 mg of tissue per ml unless otherwise stated), with homogenizer. Aliquets used for DNA analysis. Determination of DNA is used methods of ^3H-TdR.

uterine RNA = assay: Uterine RNA concentration; assay type: in vivo; conditions: treatment group; absorbance at 260 nm; P < 0.01 vs control
Experimental: Uterine samples (100 mg) were digested in a 4 M guanidium thiocyanate solution, to which was added 50 μl of 2 M sodium acetate (pH 4.0), 500 μl phenol, and finally 200 μl chloroform/isoamyl alcohol (24:1, v/v) sequentially, with mixing after each addition. The RNA from the resultant solution was pelleted by mixing with 1 vol. isopropanol and incubating at −20° C. for 2 h and spun at 12000×g for 12 min, then resuspended in 0.5% sodium dodecyl sulfate (SDS). The RNA suspension was incubated for 10 min at 65° C. and stored at −20° C. until use. RNA concentration was determined by absorbance intensity at 260 nm.

[1] = system: bone marrow stem cells (CFU-S); assay: Spleen colony assay, bone marrow stem cells (CFU-S); assay type: in vivo; conditions: treatment group, mice treated by cyclophosphamide; P < 0.01 vs control
Text: Effects of LIG on hemopoietic system were investigated. […] With increased cells in bone-marrow (BMC), endogenous colonies in spleen and higher ^3H-TdR uptake in marrow and spleen. The level of serum colony stimulating factor (CSF) increased after injection. […] Pharmacological effects as illustrated by the following table: by means of the spleen colony assay technique the action of LIG on bone marrow stem cells (CFU-S)

peritoneal macrophages = assay: Phagocytosis of peritoneal macrophage of mice; assay type: in vivo; conditions: LIG 5.5 mg/kg intraperitoneally daily for 5 days, cyclophosphamide 4.5 mg/kg; macrophages with phagocytized chick red blood cells per 100 macrophages; P < 0.01 vs control
Experimental: Male mice weight 18-20 g were used in the experiments and were divided into treated (LIG) and control groups. The dosage of LIG was 5.5 mg/kg injected intraperitoneally. The control mice were injected with same volume of normal saline. These injections were repeated daily for 5 days, both treated and control group were injected intraperitoneally with cyclosphosphamide. The dosage of cyclophosphamide is 4.5 mg/kg. The same experimental procedure for example 3, 4 and 5 in testing mice were used. Added 0.02 ml of 5% washed chick red blood cell suspension to 0.5 ml of the peritoneal exudates. Shook gently to mix and incubate at 37° C. for 5 minutes. Dipped two cover slips, closed to each other, in the above mixture and incubated for 30 minutes for the migration of the macrophages along the cover slips, fixed and stained with Sharma stain. Examined microscopically for: Phagocytic rate—number of macrophages with phagocytized chick red blood cells per 100 macrophages counted. Method of animal model is regular.

white blood cells = assay: White blood cells in rats treated by cyclophosphamide; assay type: in vivo; conditions: LIG + cyclophosphamide, 10 days treatment, P < 0.01 vs control
Text: Action of LIG and cyclophosphamide on white blood cells was investigated by means of white blood cells assay. […] Method of testing in animal is standard. The dosage of LIG and cyclophosphamide is the same as in above examples. Time of treatment is 10 days.

lymphocytes = assay: Lymphoblastoid transformation test (3H-TdR liquid scintillation); assay type: in vivo, mice; conditions: treatment group, P < 0.01 vs control
Experimental: By means of ^3H-TdR liquid scintillation assay technique, the action of LIG on lymphoblastoid transformation was investigated method:
(1) Experimental procedure of animal is the same as in Example 2.
(2) Lemphoblastoid transformation test:
a. Culture media—RPMI 1640, medium 199 minimal essential medium (Eagle).
b. Buffer—Hepes buffer, the final concentration at 37° C. was 25 mM, to maintain the pH of the medium at 7.31.
c. Serum—generally 15-205 fetal bovine serum was incorporated, for lymphocytes from mice, 5% was used.
d. Gaseous phase—5% CO2 in air.
e. Cell concentration—generally 1-2×10^6/ml.
f. Stimulants—20 μl/ml for phytohemagglutinin containing polysaccharide (PHA-M) or 10 μl/ml for polysaccharide-free purified phytohemagglutinin (PHA-P).
a. The conditions of cell culture are same as above. ^3H-TdR was added after 48 hours of incubation at a final concentration of 1 μCi/ml and continued the incubation for 24 hours.
b. Washed the cells twice with cold normal saline and the erythrocytes were lysed. The intact lymphocytes were again washed once with cold saline. Spun down the lymphocytes and added 2 ml of 10% trichloroacetic acid to precipitate the protein. Washed twice with normal saline. Added 2 ml of ethanol:ether (1:1) to wash once. […]
c. Added 4 ml of scintillation fluid to 0.1 ml of the final sample and counted in a liquid scintillation counter.

interleukin-2 (rIL-2) = assay: Interleukin-2 (rIL-2) determination; conditions: treatment group
Text: The methods of determination rIL-2 were regular.

human blood lymphocytes = assay: Immune function of human blood lymphocytes (3H-TdR incorporation); assay type: cell-based; conditions: LIG added to culture medium of lymphocytes from old volunteers (60-70 years)
Experimental: Twenty (20) old volunteers (60-70 years of age) and 10 healthy young persons participated in the experiment. 2 ml of venous blood, heparinized was obtained from each of the participants. The Study of the effects of LIG was carried out by using Eagle's Minimal Essential Medium MEM). MEM was supplemented with 0.125 ml of heat-inactivated fetal calf serum, 100 units of Penicillin and 0.1 mg of streptomycin per ml of medium. Culture medium was divided into treated (LIG) and control group. LIG was added to the culture medium of treatment group. The culture medium of control group was mixed with same volume as that of LIG of normal saline on the 72 hours of culture. The ^3H-thymidine (^3H-TdR) was added into all the cultures (2 μci/ml) for last 12 hours of culture. The cells were harvested on 0.45 μm filters, washed with phosphate buffer (ph 7.4) and bleached with H2O2. The filters were then dried and the incorporation of ^3H-TdR into lymphocytes cell was measured by scintillation counter.

hemopoietic system = assay: Recovery of hemopoiesis in mice treated by cyclophosphamide; assay type: in vivo
Text: Effects of LIG on hemopoietic system were investigated. […] With increased cells in bone-marrow (BMC), endogenous colonies in spleen and higher ^3H-TdR uptake in marrow and spleen. The level of serum colony stimulating factor (CSF) increased after injection.

[2] = mice treated by cyclophosphamide

Structure (SMILES): CCC/C=C1\OC(=O)C2=C1CCC=C2 [LIG, ligustilide]
- Peroxidase activity (uterine peroxidase): 7.6 ± 0.8 Enzyme units/10 mg uterus
- DNA synthesis (uterine tissues): 1052 ± 110 CPM/10 g uterine tissues
- RNA units (uterine RNA): 0.92 ± 0.12
- Mean (CFU-S ± SD) [1]: 28.5 ± 3.5
- Phagocytic (rate ± SD) (peritoneal macrophages): 26.8 ± 3.1
- White blood cells (white blood cells): 13.8 ± 2.0 × 10^3/cm^3
- Lymphoblastoid transformation CPM ± SD (lymphocytes): 1650 ± 270 CPM
- IL-2 (interleukin-2 (rIL-2)): 75.6 ± 8.9 U/ml
- 3H-TdR incorporation into lymphocytes, CPM (human blood lymphocytes): 2180 ± 360 CPM
- Level of serum colony stimulating factor (CSF) (hemopoietic system; after injection): increased
- 3H-TdR uptake in marrow and spleen (hemopoietic system; [2]): higher
- Cells in bone-marrow (BMC) (hemopoietic system; [2]): increased
- Recovery rate of hemopoieses (hemopoietic system; [2]): markedly improve
